In ChEMBL document CHEMBL5096162, “A review on ferulic acid and analogs based scaffolds for the management of Alzheimer's disease” (Eur J Med Chem, 2021):

Tests used:
[1] = Antioxidant activity assessed as DPPH radical scavenging activity measured for 30 mins in dark by UV-Vis spectrophotometric analysis; format: functional
[2] = Antioxidant activity assessed as trolox equivalent of ORAC radical scavenging activity by ORAC-FL assay; format: functional
[3] = Antioxidant activity assessed as DPPH radical scavenging activity at 200 uM incubated for 2 hrs in dark by spectrophotometric analysis; format: functional
[4] = Antioxidant activity of compound assessed as trolox equivalent of AAPH radical scavenging activity preincubated for 15 mins followed by AAPH addition and measured every 1 min for 60 mins by ORAC-FL assay; format: functional; conditions: time 75.0 min
[5] = Antioxidant activity assessed as trolox equivalent of ABTS radical cation scavenging activity measured after 6 mins by UV spectrophotometeric analysis; format: functional
[6] = target: T1, Cholinesterase (Homo sapiens, UniProt P06276); experiment: Inhibition of human BuchE preincubated for 6 mins followed by substrate addition and measured upto 3 mins using acetylthiocholine iodide as substrate by Ellman's method
T1 sequence (P06276 whole entry): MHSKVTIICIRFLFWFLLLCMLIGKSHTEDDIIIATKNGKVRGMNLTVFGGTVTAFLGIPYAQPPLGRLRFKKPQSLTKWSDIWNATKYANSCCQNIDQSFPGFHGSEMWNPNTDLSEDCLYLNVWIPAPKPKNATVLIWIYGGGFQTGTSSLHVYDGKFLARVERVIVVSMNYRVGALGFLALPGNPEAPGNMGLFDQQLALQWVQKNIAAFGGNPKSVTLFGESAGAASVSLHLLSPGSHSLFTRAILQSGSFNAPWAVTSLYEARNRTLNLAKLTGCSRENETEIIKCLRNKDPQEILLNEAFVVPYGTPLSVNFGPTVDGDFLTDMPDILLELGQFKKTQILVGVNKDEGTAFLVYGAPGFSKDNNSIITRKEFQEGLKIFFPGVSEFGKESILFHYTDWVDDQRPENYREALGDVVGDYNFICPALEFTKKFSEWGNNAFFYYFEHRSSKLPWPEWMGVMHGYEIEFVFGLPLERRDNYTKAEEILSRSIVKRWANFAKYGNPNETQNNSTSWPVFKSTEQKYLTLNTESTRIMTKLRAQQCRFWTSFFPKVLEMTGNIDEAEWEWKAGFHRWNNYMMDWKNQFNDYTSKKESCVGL

[7] = target: T2, Acetylcholinesterase (Homo sapiens, UniProt P22303); experiment: Inhibition of human AchE preincubated for 6 mins followed by substrate addition and measured upto 3 mins using acetylthiocholine iodide as substrate by Ellman's method
T2 sequence (P22303 whole entry): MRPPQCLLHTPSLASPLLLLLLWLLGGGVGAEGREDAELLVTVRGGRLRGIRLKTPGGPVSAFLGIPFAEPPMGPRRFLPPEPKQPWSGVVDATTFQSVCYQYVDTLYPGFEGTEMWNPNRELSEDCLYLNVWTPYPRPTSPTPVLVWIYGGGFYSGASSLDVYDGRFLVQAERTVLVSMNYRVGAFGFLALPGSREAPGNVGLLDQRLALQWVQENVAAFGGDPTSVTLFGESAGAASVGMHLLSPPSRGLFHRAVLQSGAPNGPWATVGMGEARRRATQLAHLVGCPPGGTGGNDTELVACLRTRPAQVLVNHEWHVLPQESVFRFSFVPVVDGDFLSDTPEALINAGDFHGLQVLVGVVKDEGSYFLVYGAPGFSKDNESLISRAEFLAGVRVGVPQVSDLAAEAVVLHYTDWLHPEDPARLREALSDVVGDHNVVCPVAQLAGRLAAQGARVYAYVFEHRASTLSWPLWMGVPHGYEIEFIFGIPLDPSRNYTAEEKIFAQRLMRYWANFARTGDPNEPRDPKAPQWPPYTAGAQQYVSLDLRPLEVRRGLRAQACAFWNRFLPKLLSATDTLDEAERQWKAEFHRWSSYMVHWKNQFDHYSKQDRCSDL

[8] = Metal chelating activity assessed as Fe2+ -ferrozoine complex formation incubated for 10 mins followed by ferrozine addition and further incubated for 10 mins by spectrophotometric assay; conditions: time 20.0 min
[9] = target: Amyloid-beta precursor protein (Homo sapiens) (UniProt P05067); experiment: Inhibition of amyloid beta (1 to 42) (unknown origin) self aggregation assessed as reduction in fluorescence intensity at 50 uM incubated for 24 hrs by ThT-based fluorimetric assay
Chain of Amyloid-beta precursor protein (Homo sapiens) (P05067 whole entry): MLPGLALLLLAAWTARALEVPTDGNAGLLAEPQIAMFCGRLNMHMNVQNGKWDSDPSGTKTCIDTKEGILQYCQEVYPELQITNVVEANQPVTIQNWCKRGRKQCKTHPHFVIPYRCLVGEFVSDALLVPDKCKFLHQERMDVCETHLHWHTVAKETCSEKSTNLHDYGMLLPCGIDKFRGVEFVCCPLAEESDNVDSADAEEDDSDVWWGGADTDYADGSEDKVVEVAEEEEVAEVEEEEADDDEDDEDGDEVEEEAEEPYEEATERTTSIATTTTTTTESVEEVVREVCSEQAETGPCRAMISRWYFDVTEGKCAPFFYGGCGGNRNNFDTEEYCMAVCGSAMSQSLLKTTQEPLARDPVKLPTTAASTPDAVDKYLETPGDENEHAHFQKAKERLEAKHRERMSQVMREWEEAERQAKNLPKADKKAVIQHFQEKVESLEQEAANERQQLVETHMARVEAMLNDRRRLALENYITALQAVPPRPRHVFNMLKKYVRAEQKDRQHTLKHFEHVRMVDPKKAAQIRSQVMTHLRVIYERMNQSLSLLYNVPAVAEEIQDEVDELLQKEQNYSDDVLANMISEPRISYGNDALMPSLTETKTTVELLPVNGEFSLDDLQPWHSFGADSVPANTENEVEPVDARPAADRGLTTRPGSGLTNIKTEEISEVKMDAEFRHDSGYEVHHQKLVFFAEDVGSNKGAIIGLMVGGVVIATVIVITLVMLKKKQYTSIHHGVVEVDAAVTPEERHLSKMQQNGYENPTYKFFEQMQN

[10] = system: SH-SY5Y; experiment: Neuroprotective activity against amyloid beta (1 to 42)-induced cytotoxicity in human SH-SY5Y cells assessed as increase in cell viability at 10 uM incubated for 24 hrs by MTT assay; format: functional
[11] = system: HepG2; experiment: Cytotoxicity against human HepG2 cells assessed reduction in cell viability at 1 uM by MTT assay; format: toxicity, cell-based; conditions: hepg2, 1 µM
[12] = Antioxidant activity of compound assessed as trolox equivalent of AAPH radical scavenging activity preincubated for 15 mins followed by AAPH addition and measured for 60 mins by ORAC-FL assay; format: functional; conditions: time 75.0 min
[13] = system: HepG2; experiment: Cytotoxicity against human HepG2 cells assessed reduction in cell viability at 1000 uM by MTT assay; format: toxicity, cell-based; conditions: hepg2, 1000 µM
[14] = target: T2, Acetylcholinesterase; experiment: Inhibition of human AchE preincubated for 20 mins followed by substrate addition using acetylthiocholine iodide as substrate by Ellman's method
[15] = target: T3, Cholinesterase (Equus caballus, UniProt P81908); experiment: Inhibition of equine BuChE by Ellman's method
T3 sequence (P81908 whole entry): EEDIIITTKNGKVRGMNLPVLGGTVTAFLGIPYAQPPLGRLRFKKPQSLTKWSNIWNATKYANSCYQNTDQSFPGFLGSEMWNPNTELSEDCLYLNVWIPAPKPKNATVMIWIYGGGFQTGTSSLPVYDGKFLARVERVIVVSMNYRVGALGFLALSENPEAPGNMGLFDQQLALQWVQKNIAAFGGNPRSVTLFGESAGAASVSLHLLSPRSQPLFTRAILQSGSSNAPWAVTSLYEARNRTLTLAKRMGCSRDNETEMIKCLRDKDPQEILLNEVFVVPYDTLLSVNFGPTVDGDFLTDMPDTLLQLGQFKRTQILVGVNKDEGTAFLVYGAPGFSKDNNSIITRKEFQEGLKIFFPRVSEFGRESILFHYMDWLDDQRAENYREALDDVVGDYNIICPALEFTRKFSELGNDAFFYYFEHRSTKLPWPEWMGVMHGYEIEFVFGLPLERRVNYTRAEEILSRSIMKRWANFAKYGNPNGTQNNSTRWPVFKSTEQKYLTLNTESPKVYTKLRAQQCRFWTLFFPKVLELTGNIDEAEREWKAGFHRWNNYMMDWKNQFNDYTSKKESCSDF

[16] = target: T3, Cholinesterase; experiment: Inhibition of equine serum BuChE preincubated for 5 mins followed by substrate addition and measured after 5 mins using S-butyrylthiocholine iodide as substrate by Ellman's method
[17] = system: HT-22; experiment: Neuroprotection against iodoacetic acid-induced ATP depletion in mouse HT-22 cells assessed as increase in cell viability at 1 uM incubated for 2 hrs in medium with compound and iodoacetic acid followed by medium change with compound and measured after 24 hrs by MTT assay; format: functional; conditions: time 26 hrs
[18] = Antioxidant activity assessed as DPPH radical scavenging activity incubated for 30 mins by UV-Vis spectrophotometric analysis; format: functional
[19] = target: Acetylcholinesterase (Electrophorus electricus, UniProt O42275); experiment: Inhibition of electric eel AChE preincubated for 15 mins followed by substrate addition using acetylthiocholine iodide as substrate by Ellman's method
Chain of Acetylcholinesterase (Electrophorus electricus, UniProt O42275) (O42275 whole entry): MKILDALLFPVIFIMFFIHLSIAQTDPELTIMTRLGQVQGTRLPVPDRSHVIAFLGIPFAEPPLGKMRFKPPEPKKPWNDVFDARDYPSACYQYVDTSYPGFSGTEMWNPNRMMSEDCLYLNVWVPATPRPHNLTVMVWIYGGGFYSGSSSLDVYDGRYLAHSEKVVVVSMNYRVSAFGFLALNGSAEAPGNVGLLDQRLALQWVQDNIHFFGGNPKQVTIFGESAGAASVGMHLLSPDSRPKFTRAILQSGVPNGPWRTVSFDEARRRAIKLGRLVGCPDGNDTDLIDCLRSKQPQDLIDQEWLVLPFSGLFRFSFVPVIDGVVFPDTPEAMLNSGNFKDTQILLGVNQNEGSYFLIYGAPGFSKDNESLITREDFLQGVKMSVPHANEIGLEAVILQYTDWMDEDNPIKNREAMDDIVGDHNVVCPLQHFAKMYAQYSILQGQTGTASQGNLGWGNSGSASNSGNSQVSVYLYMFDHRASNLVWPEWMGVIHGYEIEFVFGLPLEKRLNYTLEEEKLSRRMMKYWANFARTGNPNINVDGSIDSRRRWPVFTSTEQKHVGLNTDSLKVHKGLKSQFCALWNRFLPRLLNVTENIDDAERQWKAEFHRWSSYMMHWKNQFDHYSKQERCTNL

[20] = Antioxidant activity assessed as DPPH radical scavenging activity at 1 mM incubated for 30 mins by microplate reader method; format: functional
[21] = target: Amyloid-beta precursor protein (Homo sapiens) (UniProt P05067); experiment: Inhibition of amyloid beta (1 to 42) (unknown origin) self aggregation assessed as reduction in fluorescence intensity at 80 uM incubated for 24 hrs by ThT-based fluorimetric assay
[22] = target: Beta-secretase 1 (Homo sapiens, UniProt P56817); experiment: Inhibition of human BACE-1 by FRET-based fluorometric assay
Chain of Beta-secretase 1 (P56817 whole entry): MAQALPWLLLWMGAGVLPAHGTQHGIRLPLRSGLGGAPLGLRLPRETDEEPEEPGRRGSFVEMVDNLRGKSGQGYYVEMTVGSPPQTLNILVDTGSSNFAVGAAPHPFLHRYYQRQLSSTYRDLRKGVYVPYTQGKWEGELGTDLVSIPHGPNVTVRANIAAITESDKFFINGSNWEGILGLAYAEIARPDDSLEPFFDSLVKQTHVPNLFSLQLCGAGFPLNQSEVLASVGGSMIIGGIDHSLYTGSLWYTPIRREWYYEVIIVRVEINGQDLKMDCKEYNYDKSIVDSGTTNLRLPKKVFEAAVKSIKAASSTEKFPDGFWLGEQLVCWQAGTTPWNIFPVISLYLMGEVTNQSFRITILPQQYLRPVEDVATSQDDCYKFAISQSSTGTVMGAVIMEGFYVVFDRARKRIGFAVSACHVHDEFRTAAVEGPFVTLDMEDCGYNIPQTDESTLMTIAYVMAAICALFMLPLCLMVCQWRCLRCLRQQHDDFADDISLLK

[23] = system: SH-SY5Y; experiment: Neuroprotective activity against amyloid beta-induced cytotoxicity in human SH-SY5Y cells assessed as cell viability at 10 to 80 uM by MTT assay; format: functional; conditions: dose 10-80 µM
[24] = target: T2, Acetylcholinesterase; experiment: Inhibition of human AchE using acetylthiocholine iodide as substrate by Ellman colorimetric assay
[25] = target: T1, Cholinesterase; experiment: Inhibition of human BuchE using butyrylthiocholine iodide as substrate by Ellman colorimetric assay
[26] = Antioxidant activity assessed as GO radical cation scavenging activity measured for 30 mins by spectrophotometeric analysis; format: functional
[27] = Antioxidant activity assessed as ABTS radical cation scavenging activity measured every minute for 15 mins by spectrophotometeric analysis; format: functional
[28] = Antioxidant activity of compound assessed as trolox equivalent of AAPH radical scavenging activity preincubated for 15 mins followed by AAPH addition and measured for 120 mins by ORAC-FL assay; format: functional; conditions: time 135.0 min
[29] = Antioxidant activity assessed as DPPH radical scavenging activity measured for 45 mins by spectrophotometric analysis; format: functional

Q: With `C=CCc1ccc(OC(=O)/C=C/c2ccc(O)c(O)c2)c(OC)c1` as the compound, how does the IC50 [1] read?
A: 11200 nM

Q: Which Activity [2] does the source give for `COc1cc(/C=C/C(=O)O[C@H]2C[C@H]3O[C@H](OC(=O)NCc4ccccc4)C[C@H]3O2)ccc1O` here?
A: 0.635 equiv

Q: With `O=C(NCc1ccccc1)C(c1ccnc2ccccc12)N(Cc1ccccc1)C(=O)/C=C/c1ccc(O)c(O)c1` (configuration not stated) as the compound, how does the Activity [3] read?
A: > 77%

Q: What about the Activity [4] of the same compound?
A: 4.98 equiv

Q: For `COc1cc(/C=C/C(=O)OCCCCCN(C)Cc2cccc(OC(=O)N(C)C)c2)ccc1O`, which Activity [5] is on record?
A: 1.26 µM

Q: What about the IC50 [6] of the same compound?
A: 0.59 nM

Q: What about the IC50 [7] of the same compound?
A: 19.7 nM

Q: For `COCCCCCCCCCCCCCCCCCCOC(=O)/C=C/c1ccc(O)c(OC)c1`, which Activity [8] is on record?
A: 77.9%

Q: Which Activity [2] does the source give for `CCNC(=O)O[C@@H]1C[C@H]2O[C@@H](OC(=O)CCCCC3CCSS3)C[C@H]2O1` (some centres not stated) here?
A: 0.163 equiv

Q: For `COc1ccc2nc3c(c(NCCCCCCCCN(CC(=O)Nc4ccc5ccccc5c4)C(=O)/C=C/c4ccc(O)c(OC)c4)c2c1)CCCC3`, which inhibition [9] is on record?
A: 65.6%

Q: What about the Activity [10] of the same compound?
A: 95.1%

Q: What about the Activity [11] of the same compound?
A: 98.8%

Q: What about the Activity [12] of the same compound?
A: 4.29 equiv

Q: And the Activity [13]?
A: 59.4%

Q: And the IC50 [14]?
A: 22.2 nM

Q: Which Activity [2] does the source give for `COc1ccc2[nH]cc(CCNC(=O)CN(CCC3CCN(Cc4ccccc4)CC3)C(=O)/C=C/c3ccc(O)c(OC)c3)c2c1` here?
A: 8.71 equiv

Q: And the IC50 [15]?
A: 10.4 nM

Q: For `O=C(/C=C/c1cc(O)c(O)c(O)c1)NCCCCCC[P+](c1ccccc1)(c1ccccc1)c1ccccc1`, which IC50 [16] is on record?
A: 110 nM

Q: For `O=C(/C=C/c1ccccc1)Oc1ccc2c(c1)O[C@H](c1ccc(O)c(O)c1)[C@@H](O)C2=O`, which Activity [17] is on record?
A: 40%

Q: With `O=C1c2c(O)cc(O)cc2O[C@H](c2ccc(O)c(O)c2)[C@H]1O` [(+)-TAXIFOLIN] as the compound, how does the Activity [17] read?
A: 10%

Q: Which IC50 [18] does the source give for `COc1ccc(/C=C/C(=O)NCCC2CCN(Cc3ccccc3)CC2)cc1O` here?
A: 764000 nM

Q: For `COc1ccc(/C=C/C(O)NCCCNc2c3c(nc4ccccc24)CCCC3)cc1OC` (configuration not stated), which IC50 [19] is on record?
A: 90 nM

Q: And the Activity [20]?
A: 16.8%

Q: And the inhibition [21]?
A: 56.5%

Q: Which IC50 [22] does the source give for `COc1cc(/C=C/c2nnc(-c3ccc(C(F)(F)F)cc3)o2)ccc1O` here?
A: 255 nM

Q: And the Activity [23]?
A: 70.45%

Q: What about the IC50 [24] of the same compound?
A: 68 nM

Q: What about the IC50 [25] of the same compound?
A: 255 nM

Q: What does the source list for `COc1cc(/C=C/C(=O)O)ccc1S`?
A: IC50 [26]: 4250 nM; IC50 [27]: 19900 nM; Activity [28]: 0.34; IC50 [29]: 47800 nM
